Reference: DBAASP
Values after ≈ are worked out from the molar mass of the structure shown.

How the values were obtained:
Test in all cases: ≥ marks a high value that may be exact or a test limit, other limits are often not marked, values filed in µg/mL are converted to µM
Bacillus subtilis = test system: Bacillus subtilis
Candida albicans = test system: Candida albicans
Escherichia coli = test system: Escherichia coli
Staphylococcus aureus = test system: Staphylococcus aureus
[1] = test system: Candida albicans ATCC 2002
[2] = test system: Escherichia coli ATCC 25922
[3] = test system: Pseudomonas aeruginosa CMCCB 10104
[4] = test system: Staphylococcus aureus ATCC 25923
[5] = test system: Pseudomonas aeruginosa ATCC 27853
[6] = test system: Staphylococcus aureus ATCC 33591
[7] = test system: Escherichia coli DH5alpha

SMILES	MIC [1] [µM]	MIC [2] [µM]	MIC [3] [µM]	MIC [4] [µM]	other results
CC[C@H](C)[C@@H]1NC(=O)[C@H](CO)NC(=O)[C@H](CCCCN)NC(=O)[C@H]([C@@H](C)O)NC(=O)[C@H](Cc2c[nH]c3ccccc23)NC(=O)[C@@H](NC(=O)CNC(=O)[C@H](CCCCN)NC(=O)[C@H](CC(C)C)NC(=O)[C@H](C)NC(=O)[C@H](C)N)CSSC[C@@H](C(=O)N[C@@H](Cc2ccccc2)C(=O)NCC(=O)N[C@@H](CCCCN)C(=O)N[C@@H](CCCN=C(N)N)C(=O)O)NC(=O)[C@@H]2CCCN2C(=O)[C@H](CCCCN)NC(=O)[C@@H]2CCCN2C(=O)[C@@H]2CCCN2C1=O [AALKGCWTKSIPPKPCFGKR]					MIC (Bacillus subtilis): 0.845 µM (≈ 1.85 µg/mL); MIC (Candida albicans): 1.1 µM (≈ 2.4 µg/mL); MIC (Escherichia coli): 1.47 µM (≈ 3.21 µg/mL); MIC (Staphylococcus aureus): 2.66 µM (≈ 5.82 µg/mL)
CC[C@H](C)[C@@H]1NC(=O)[C@H](C)NC(=O)[C@@H](NC(=O)[C@H](Cc2ccccc2)NC(=O)[C@H](C)NC(=O)[C@@H](NC(=O)[C@@H]2CCCN2C(=O)[C@H](CC(C)C)NC(=O)[C@@H](NC(=O)[C@H](CC(N)=O)NC(=O)[C@H](C)NC(=O)[C@H](C)NC(=O)[C@@H](NC(=O)[C@H](CCCN=C(N)N)NC(=O)[C@@H](NC(=O)[C@@H](NC(=O)[C@H](C)NC(=O)[C@@H]2CCCN2C(=O)[C@H](CC(C)C)NC(=O)[C@@H](N)Cc2ccccc2)C(C)C)[C@@H](C)CC)C(C)C)C(C)C)[C@@H](C)O)CSSC[C@@H](C(=O)O)NC(=O)[C@H](CCCCN)NC(=O)[C@H](CCCCN)NC(=O)[C@H](CO)NC1=O [FLPAVIRVAANVLPTAFCAISKKC]	1.3 (≈ 3.3 µg/mL)	2.61 (≈ 6.59 µg/mL)	5.21 (≈ 13.2 µg/mL)	2.61 (≈ 6.59 µg/mL)	
CC[C@H](C)[C@@H]1NC(=O)[C@H](CCCCN)NC(=O)[C@@H](NC(=O)[C@H](CCCCN)NC(=O)[C@H](CC(C)C)NC(=O)[C@H](CC(N)=O)NC(=O)[C@H](CC(=O)O)NC(=O)[C@H](CC(C)C)NC(=O)[C@H](CC(C)C)NC(=O)[C@@H](NC(=O)[C@@H](NC(=O)[C@H](C)NC(=O)[C@@H](NC(=O)[C@H](CC(N)=O)NC(=O)[C@H](CCCCN)NC(=O)[C@H](C)NC(=O)[C@@H](NC(=O)[C@H](CC(N)=O)NC(=O)[C@H](CCCCN)NC(=O)[C@H](C)NC(=O)[C@@H](NC(=O)[C@H](CC(N)=O)NC(=O)[C@H](CCSC)NC(=O)[C@H](Cc2ccccc2)NC(=O)CN)[C@@H](C)O)C(C)C)C(C)C)C(C)C)[C@@H](C)O)CSSC[C@@H](C(=O)O)NC(=O)CNC(=O)CNC(=O)[C@H]([C@@H](C)O)NC1=O [GFMNTAKNVAKNVAVTLLDNLKCKITGGC]	2.94 (≈ 8.89 µg/mL)	2.94 (≈ 8.89 µg/mL)	5.89 (≈ 17.8 µg/mL)	5.89 (≈ 17.8 µg/mL)	
CC[C@H](C)[C@H](NC(=O)CN)C(=O)N[C@@H](CC(C)C)C(=O)NCC(=O)N[C@@H](CC(N)=O)C(=O)N[C@H](C(=O)N[C@H](C(=O)NCC(=O)N[C@@H](CCSC)C(=O)NCC(=O)N[C@@H](CCCCN)C(=O)N[C@@H](CCCCN)C(=O)N[C@H](C(=O)N[C@H](C(=O)N[C@H]1CSSC[C@@H](C(=O)O)NC(=O)[C@H](CC(C)C)NC(=O)CNC(=O)[C@H](CO)NC(=O)[C@H](CC(C)C)NC(=O)CNC1=O)C(C)C)C(C)C)C(C)C)[C@@H](C)CC [GILGNIVGMGKKVVCGLSGLC]	3.32 (≈ 6.69 µg/mL)	5.6 (≈ 11.3 µg/mL)	11.2 (≈ 22.6 µg/mL)	5.6 (≈ 11.3 µg/mL)	
CC[C@H](C)[C@H](NC(=O)CNC(=O)[C@H](CCCCN)NC(=O)CNC(=O)[C@H](C)NC(=O)[C@H](Cc1ccccc1)NC(=O)[C@H](CCCCN)NC(=O)[C@H](CO)NC(=O)[C@H](Cc1ccccc1)NC(=O)[C@H](CC(C)C)NC(=O)CN)C(=O)N[C@H](C(=O)N[C@@H](CC(N)=O)C(=O)N[C@@H](Cc1ccccc1)C(=O)N[C@@H](CC(C)C)C(=O)N[C@H](C(=O)N[C@@H](CCC(=O)O)C(=O)NCC(=O)N[C@H](C(=O)N[C@@H](CCC(=O)O)C(=O)O)C(C)C)[C@@H](C)CC)C(C)C [GLFSKFAGKGIVNFLIEGVE]	14.3 (≈ 30.5 µg/mL)	14.3 (≈ 30.5 µg/mL)	7.2 (≈ 15.3 µg/mL)	7.2 (≈ 15.3 µg/mL)	
CC[C@H](C)[C@H](NC(=O)CNC(=O)[C@H](CO)NC(=O)[C@H](CC(C)C)NC(=O)[C@H](CC(C)C)NC(=O)CN)C(=O)N[C@@H](CC(C)C)C(=O)NCC(=O)N[C@@H](C)C(=O)NCC(=O)N[C@@H](CCCCN)C(=O)N[C@@H](Cc1cnc[nH]1)C(=O)N[C@H](C(=O)N[C@H](C(=O)N[C@@H](CS)C(=O)NCC(=O)N[C@@H](CC(C)C)C(=O)N[C@@H](CO)C(=O)NCC(=O)N[C@@H](CC(C)C)C(=O)N[C@@H](CCCN=C(N)N)C(=O)O)C(C)C)[C@@H](C)CC [GLLSGILGAGKHIVCGLSGLR]					MIC (Bacillus subtilis): 9.28 µM (≈ 18.8 µg/mL); MIC (Candida albicans): 0.544 µM (≈ 1.1 µg/mL); MIC (Escherichia coli): 2.32 µM (≈ 4.68 µg/mL); MIC (Staphylococcus aureus): 4.64 µM (≈ 9.37 µg/mL)
C[C@H](NC(=O)[C@H](CCCN=C(N)N)NC(=O)[C@H](CCCN=C(N)N)NC(=O)[C@@H]1CCCN1C(=O)CNC(=O)[C@H](CCCN=C(N)N)NC(=O)[C@H](CCCN=C(N)N)NC(=O)CN)C(=O)N[C@@H](CC(N)=O)C(=O)N[C@@H](CCC(N)=O)C(=O)N[C@@H](CC(N)=O)C(=O)NCC(=O)N[C@H](C(=O)N[C@@H](CCCN=C(N)N)C(=O)N[C@@H](CCCN=C(N)N)C(=O)N[C@@H](CCCN=C(N)N)C(=O)N[C@@H](CCCN=C(N)N)C(=O)N[C@@H](CCCN=C(N)N)C(=O)N[C@@H](CCCN=C(N)N)C(=O)N[C@H](C(N)=O)[C@@H](C)O)[C@@H](C)O [GRRGPRRANQNGTRRRRRRT]		25 (≈ 61.9 µg/mL)		100 (≈ 248 µg/mL)	MIC [5]: 25 µM (≈ 61.9 µg/mL); MIC [6]: ≥ 100 µM
CC[C@H](C)[C@H](NC(=O)[C@H](CCCCN)NC(=O)[C@H](CS)NC(=O)[C@H](C)NC(=O)[C@@H](NC(=O)[C@H](Cc1ccccc1)NC(=O)CNC(=O)[C@H](CC(C)C)NC(=O)CNC(=O)[C@@H](NC(=O)[C@H](CCCCN)NC(=O)CNC(=O)[C@H](CC(C)C)NC(=O)[C@H](CC(N)=O)NC(=O)[C@H](CCCCN)NC(=O)[C@H](CC(C)C)NC(=O)[C@@H](NC(=O)CNC(=O)[C@H](CC(C)C)NC(=O)[C@H](CCSC)NC(=O)[C@@H](N)CO)C(C)C)C(C)C)C(C)C)C(=O)N[C@@H](CC(N)=O)C(=O)N[C@@H](CCCCN)C(=O)N[C@@H](CCC(N)=O)C(=O)N[C@@H](CS)C(=O)O [SMLGVLKNLGKVGLGFVACKINKQC]					MIC (Candida albicans): 200 µM (≈ 524 µg/mL); MIC (Escherichia coli): 40 µM (≈ 105 µg/mL); MIC (Staphylococcus aureus): > 200 µM

Further lines, with some results ahead:

MIC [1] [µM]	MIC [2] [µM]	MIC [3] [µM]	MIC [4] [µM]	SMILES	other results
2.97 (≈ 9.99 µg/mL)	5.94 (≈ 20 µg/mL)	5.94 (≈ 20 µg/mL)	2.97 (≈ 9.99 µg/mL)	CC(C)C[C@H](NC(=O)CN)C(=O)N[C@@H](CC(C)C)C(=O)N[C@@H](CC(=O)O)C(=O)N[C@H](C(=O)N[C@@H](Cc1ccccc1)C(=O)N[C@@H](CCCCN)C(=O)N[C@@H](CC(N)=O)C(=O)N[C@@H](CC(C)C)C(=O)N[C@@H](C)C(=O)N[C@@H](CC(C)C)C(=O)N[C@@H](CC(N)=O)C(=O)N[C@@H](C)C(=O)N[C@@H](C)C(=O)N[C@@H](CCC(=O)O)C(=O)N[C@@H](CO)C(=O)N[C@@H](C)C(=O)NCC(=O)N[C@H](C(=O)N[C@@H](CO)C(=O)N[C@H](C(=O)N[C@@H](CC(C)C)C(=O)N[C@@H](CC(N)=O)C(=O)N[C@@H](CO)C(=O)N[C@@H](CC(C)C)C(=O)N[C@@H](CO)C(=O)N[C@H]1CSSC[C@@H](C(=O)O)NC(=O)[C@H]([C@@H](C)O)NC(=O)[C@H](CCCCN)NC(=O)[C@H](CO)NC(=O)[C@H](CC(C)C)NC(=O)[C@H](CCCCN)NC1=O)C(C)C)C(C)C)[C@@H](C)O [GLLDTFKNLALNAAESAGVSVLNSLSCKLSKTC]	
	32 (≈ 62.7 µg/mL)			CC[C@H](C)[C@H](NC(=O)[C@@H](N)CCCN=C(N)N)C(=O)N[C@@H](Cc1c[nH]c2ccccc12)C(=O)N[C@@H](Cc1ccccc1)C(=O)N[C@@H](CCC(N)=O)C(=O)N[C@@H](CC(N)=O)C(=O)N[C@@H](CCCN=C(N)N)C(=O)N[C@@H](CCCN=C(N)N)C(=O)N[C@@H](CCSC)C(=O)N[C@@H](CCCN=C(N)N)C(=O)N[C@@H](Cc1c[nH]c2ccccc12)C(=O)N[C@@H](CCCN=C(N)N)C(=O)N[C@@H](CCCN=C(N)N)C(N)=O [RIWFQNRRMRWRR]	MIC [6]: ≥ 32 µM
	32 (≈ 71.3 µg/mL)			CC[C@H](C)[C@H](NC(=O)[C@H](CCC(N)=O)NC(=O)[C@H](CC(C)C)NC(=O)[C@H](CCC(N)=O)NC(=O)[C@@H](NC(=O)[C@H](CCCCN)NC(=O)[C@H](Cc1ccccc1)NC(=O)[C@H](Cc1c[nH]c2ccccc12)NC(=O)[C@@H](N)CCCN=C(N)N)[C@@H](C)CC)C(=O)N[C@@H](CCCN=C(N)N)C(=O)N[C@@H](CCCN=C(N)N)C(=O)N[C@@H](Cc1c[nH]c2ccccc12)C(=O)N[C@@H](CCCCN)C(=O)N[C@@H](CC(N)=O)C(=O)N[C@@H](CCCCN)C(=O)N[C@@H](CCCCN)C(N)=O [RWFKIQLQIRRWKNKK]	MIC [6]: 16 µM (≈ 35.6 µg/mL)
			10 (≈ 16.7 µg/mL)	CC[C@H](C)[C@H](NC(=O)[C@H](Cc1ccccc1)NC(=O)[C@@H](NC(=O)[C@H](Cc1ccccc1)NC(=O)[C@H](CCCN=C(N)N)NC(=O)[C@H](CCCCN)NC(=O)[C@H](CCCN=C(N)N)NC(=O)[C@H](CCCCN)NC(=O)[C@H](Cc1c[nH]c2ccccc12)NC(=O)[C@H](CC(C)C)NC(=O)[C@@H](NC(=O)[C@@H](N)Cc1ccc(O)cc1)C(C)C)[C@@H](C)CC)C(=O)O [YVLWKRKRFIFI]	MIC (Bacillus subtilis): 20 µM (≈ 33.4 µg/mL); MIC [7]: 10 µM (≈ 16.7 µg/mL); MIC [5]: 30 µM (≈ 50.1 µg/mL)
